Laboratory results reported in patent US20090208620A1, “Alimentary Compositions and Methods For Metabolic Modulation” (VDF FUTURECEUTICALS, INC., priority 2003, published 2009).
Values joined by “and” are separate entries in the source; they are usually repeats but may differ in a detail not shown here. Equal values may be shown once.

Tests used:
activated AMPK = assay: Western immunoblot for activated (phospho-Thr172) AMPK in muscle cells; format: cell-based, mouse; settings: for FOLD AMPK ACTIVATION (OVER CONTROL): cells treated 30 minutes at 37° C
Description: (§1) The levels of Glut-4, activated AMPK and activated Akt were measured in mouse muscle cells C2C12 (from ATTC) and in primary culture of human skeletal muscle cells (Clonetics, Inc.) using Western immunoblotting. C2C12 cells were plated at 1.5×1-exp5 cells per mL/well (12-well plate) in standard cell culture medium (DMEM supplemented with 10% fetal bovine serum (FBS), 25 mM glucose, 20 mM Hepes, 4 mM glutamine and 2 mM sodium pyruvate. 48 hrs after the plating, medium was changed to differentiation medium (DMEM supplemented with 5 mM of glucose and 0.5% of FBS) for next 3-4 days to stimulate the formation of myotubes. Three hours before the treatment with selected agents, cells were washed with PBS and transferred to PBS supplemented with 5 mM of glucose.
(§2) Human skeletal muscle cells (HSKM) were cultured in SKBM-2 mediums provided by Clonetics. 48 hrs after cell plating, medium was changed to SKBM medium to stimulate differentiation of the cells to myotubes. When differentiated, the myotubes were transferred to PBS supplemented with 5 mM glucose for three hrs before the treatment.
(§3) Analysis of C2C12 cells for the level of activated AMPK, Akt and the level of GLUT-4 was performed in the same experimental system. The cells were treated for 30 minutes at 37° C. […] Subsequently, 20 μg per sample of sample protein was used for Western analysis using NuPage 10% Bis/Tris gels (Invitrogen). After exposure of membranes to primary and secondary antibodies AMPK, AKT or Glut-4 was detected using ECL-Plus (Amersham) following producer's instruction. Chemilumiscent signals were detected by using ChemiDoc system from Biorad. Intensity of detected signals were analyzed and measured using Quantity One software (Biorad). Alternatively, the level of phosphorylated AMPK was detected using ECL kit from Amersham and short exposure to Kodak films.
(§4) Experimental setup: Cell Culture was followed by treatment with selected contemplated compounds, which was followed by cell lysis and western blot analysis for AMPK, Akt, GLUT4, total AMPK, and total Akt. Signals were acquired accordingly.

[1] = Oral availability and serum level of DHZ by ELISA; format: in vivo, C57/B1 mice; settings: 100 microgram/dose, mice; for concentration at 0 minutes / concentration at 15 minutes / concentration at 30 minutes / concentration at 60 minutes / concentration at 120 minutes: C57/B1, mouse, serum
Description: C57/B1 mice were treated with 100 microgram/dose of dihydrozeatin (DHZ) for 0, 15, 30, 60 and 120 minutes following oral or i.p. administration. Serum level of DHZ in pg/ml was measured using DHZ Elisa following procedures as enclosed in a commercially available test kit (e.g., dihydrozeatin competitive ELISA test system for plant growth hormone detection, Agdia, Elkhard, Ind.).

activated Akt = assay: Western immunoblot for activated (phospho-Ser473) Akt in muscle cells; format: cell-based, mouse; settings: for FOLD AKT ACTIVATION (OVER CONTROL): cells treated 30 minutes at 37° C
Description: as §1, §2, §3, §4

GLUT-4 = assay: Western immunoblot for GLUT-4 protein level in C2C12 cells; format: cell-based, mouse
Description: as §1
Analysis of C2C12 cells for the level of activated AMPK, Akt and the level of GLUT-4 was performed in the same experimental system. The cells were treated for 30 minutes at 37° C. After the treatment, the cells were washed with ice-cold PBS and lysed with 80 μl of lysis buffer/well (M-PER buffer from Pierce supplemented with protease and phosphatase inhibitor mix (Calbiochem) for 10 minutes on ice. Next, the plates were transferred to −20° C. to improve the lysis of the cells. Next cells were sonicated for 5 minutes and lysate was transferred to Eppendorf tubes and centrifuged at 14,000 rpm for 10 minutes. Supernatants were collected in fresh Eppendorf tubes and kept on ice to measure the amount of total proteins. 3 μl of each lysate was used to measure the protein concentration using standard Bradford method (Biorad). Subsequently, 20 μg per sample of sample protein was used for Western analysis using NuPage 10% Bis/Tris gels (Invitrogen). After exposure of membranes to primary and secondary antibodies AMPK, AKT or Glut-4 was detected using ECL-Plus (Amersham) following producer's instruction. Chemilumiscent signals were detected by using ChemiDoc system from Biorad. Intensity of detected signals were analyzed and measured using Quantity One software (Biorad). Alternatively, the level of phosphorylated AMPK was detected using ECL kit from Amersham and short exposure to Kodak films.
Experimental setup: Cell Culture was followed by treatment with selected contemplated compounds, which was followed by cell lysis and western blot analysis for AMPK, Akt, GLUT4, total AMPK, and total Akt. Signals were acquired accordingly. Primary antibodies used in these studies are the following: Anti-phospho-AMPK (Thr172), mouse, rabbit IgG, from Cell Signaling, #2531; Anti-phospho-Akt (Ser473), mouse, rabbit IgG, Cell Signaling, #9271; Anti-Glut-4, mouse, rabbit IgG, Calbiochem, #400064; Anti-AMPK (total), mouse, rabbit IgG, Cell Signaling, #2532; Anti-Akt (total), mouse, rabbit IgG, Cell Signaling, #9272.
The effects of kinetin, N^2-Acetyl-Guanosine and N^2-Acetyl-Guanine on GLUT-4 protein level in C2C12 cells were investigated following the same experimental design as described for AMPK and AKT. Anti-Glut-4 antibody used in this study was from Calbiochem. […] Table 3 refers to multiple independent experiments where multiple identical concentrations for the same reagents are indicated.

muscle cells = assay: Total glucose uptake in vitro with fluorescent glucose analog; format: cell-based; settings: for AVERAGE (N = 3) fluorescence of fluorescent glucose in the cells / FOLD CHANGE IN TOTAL GLUCOSE UPTAKE (OVER CONTROL): 30 minutes at 37 C
Description: Total glucose uptake was measured using fluorescent glucose analog from Molecular Probes. Briefly, muscle cells were treated with kinetin, N^2-Acetyl-Guanosine and N^2-Acetyl-Guanine for 30 minutes at 37 C first and subsequently, these cells were exposed to 500 μM of fluorescent glucose analog for 5 minutes at room temperature. Next, cells were washed twice with cold Krebs-Hepes buffered solution and fixed in 70% ethanol in water. Fluorescence of fluorescent glucose in the cells was measured using fluorescent plate reader at 480/530 nm (excitation/emission). […] Table 4 refers to multiple independent experiments where multiple identical concentrations for the same reagents are indicated.

[2] = concentration 0.15 (unit not given)
[3] = concentration 0.3 (unit not given)
[4] = concentration 0.75 (unit not given)
[5] = concentration 1.5 (unit not given)
[6] = concentration 3.75 (unit not given)
[7] = concentration 7.5 (unit not given)

With `CC(CO)CCNc1ncnc2nc[nH]c12` (stereo not drawn) [Dihydro-Zeatin, dihydrozeatin] the “FOLD AMPK ACTIVATION (OVER CONTROL)” value (activated AMPK; 0.5 microM) was 2.25 fold, the “FOLD AMPK ACTIVATION (OVER CONTROL)” value (activated AMPK; 5.0 microM) was 0.59 fold and the “FOLD AMPK ACTIVATION (OVER CONTROL)” value (activated AMPK; 50.0 microM) was 0.88 fold. The concentration at 0 minutes ([1]; ip) was 0.3 ng/mL, the concentration at 15 minutes ([1]; ip) was 1.15 ng/mL and the concentration at 30 minutes ([1]; ip) was 0.991 ng/mL. For the same compound, the concentration at 60 minutes ([1]; ip) was 0.746 ng/mL, the concentration at 120 minutes ([1]; ip) was 0.471 ng/mL and the concentration at 0 minutes ([1]; Oral) was 0.3 ng/mL. For the same compound, the concentration at 15 minutes ([1]; Oral) was 0.952 ng/mL, the concentration at 30 minutes ([1]; Oral) was 1.02 ng/mL and the concentration at 60 minutes ([1]; Oral) was 0.961 ng/mL. The concentration at 120 minutes ([1]; Oral) was 0.853 ng/mL, the “oral bioavailability (in words)” value [1] was “readily bioavailable from the oral route” and the “time over which significant serum concentrations can be maintained” value [1] was “at least 120 minutes”.
With `CC(=O)Nc1nc2c(ncn2[C@@H]2O[C@H](CO)[C@@H](O)[C@H]2O)c(=O)[nH]1` [N^2-Acetyl-Guanosine] the “FOLD AMPK ACTIVATION (OVER CONTROL)” value (activated AMPK; 0.3 microM) was 3.75 fold, the “FOLD AMPK ACTIVATION (OVER CONTROL)” value (activated AMPK; 0.8 microM) was 2.20 fold and the “FOLD AMPK ACTIVATION (OVER CONTROL)” value (activated AMPK; 1.5 microM) was 4.28 fold. For the same compound, the “FOLD AMPK ACTIVATION (OVER CONTROL)” value (activated AMPK; 2.0 microM) was 2.20 fold, the “FOLD AMPK ACTIVATION (OVER CONTROL)” value (activated AMPK; 7.5 microM) was 1.71 fold and the “FOLD AMPK ACTIVATION (OVER CONTROL)” value (activated AMPK; 37.5 microM) was 2.28 fold. The “effect on AMPK activity (in words)” value (activated AMPK; no concentration stated) was “potent activators of AMPK”, the “FOLD AKT ACTIVATION (OVER CONTROL)” value (activated Akt; 0.1 microM) was 2.57 fold and the “FOLD AKT ACTIVATION (OVER CONTROL)” value (activated Akt; 0.3 microM) was 1.92 fold and 2.57 fold. For the same compound, the “FOLD AKT ACTIVATION (OVER CONTROL)” value (activated Akt; 0.8 microM) was 1.75 fold and 2.95 fold, the “FOLD AKT ACTIVATION (OVER CONTROL)” value (activated Akt; 1.5 microM) was 1.55 fold and the “FOLD AKT ACTIVATION (OVER CONTROL)” value (activated Akt; 2.0 microM) was 2.17 fold. For the same compound, the “FOLD AKT ACTIVATION (OVER CONTROL)” value (activated Akt; 5.0 microM) was 1.23 fold, the “FOLD AKT ACTIVATION (OVER CONTROL)” value (activated Akt; 7.5 microM) was 1.68 fold and the “effect on Akt activity (in words)” value (activated Akt; no concentration stated) was “potent activators of AMPK as well as Akt”. The “effect on GLUT-4 protein level (in words)” value (GLUT-4) was “potently increase GLUT-4 protein level”, the “FOLD CHANGE IN GLUT-4 LEVEL (OVER CONTROL)” value (from here on “FOLD CHANGE IN GLUT-4 LEVEL”) (GLUT-4; 0.3 microM) was 1.21 fold and the “FOLD CHANGE IN GLUT-4 LEVEL” value (GLUT-4; 1.5 microM) was 1.74 fold. For the same compound, the “FOLD CHANGE IN GLUT-4 LEVEL” value (GLUT-4; 7.5 microM) was 3.14 fold, the “FOLD CHANGE IN GLUT-4 LEVEL” value (GLUT-4; 37.5 microM) was 3.03 fold and the “effect on glucose uptake in muscle cells in vitro (in words)” value (muscle cells) was “potently enhance glucose uptake in muscle cells in vitro”. For the same compound, the “AVERAGE (N = 3) fluorescence of fluorescent glucose in the cells” value (from here on “AVERAGE (N = 3) fluorescence”) (muscle cells; [2]) was 90.5 +/− 1.7, the “FOLD CHANGE IN TOTAL GLUCOSE UPTAKE (OVER CONTROL)” value (from here on “FOLD CHANGE IN TOTAL GLUCOSE UPTAKE”) (muscle cells; [2]) was 1.94 fold and the “AVERAGE (N = 3) fluorescence” value (muscle cells; [3]) was 44.1 +/− 0.7. For the same compound, the “FOLD CHANGE IN TOTAL GLUCOSE UPTAKE” value (muscle cells; [3]) was 2.17 fold, the “AVERAGE (N = 3) fluorescence” value (muscle cells; [4]) was 109.5 +/− 2.6 and the “FOLD CHANGE IN TOTAL GLUCOSE UPTAKE” value (muscle cells; [4]) was 2.35 fold. The “AVERAGE (N = 3) fluorescence” value (muscle cells; [5]) was 54.3 +/− 0.9, the “FOLD CHANGE IN TOTAL GLUCOSE UPTAKE” value (muscle cells; [5]) was 2.67 fold and the “AVERAGE (N = 3) fluorescence” value (muscle cells; [6]) was 148.7 +/− 8.5. The “FOLD CHANGE IN TOTAL GLUCOSE UPTAKE” value (muscle cells; [6]) was 3.18 fold, the “AVERAGE (N = 3) fluorescence” value (muscle cells; [7]) was 61.7 +/− 1.3 and the “FOLD CHANGE IN TOTAL GLUCOSE UPTAKE” value (muscle cells; [7]) was 3.03 fold.
